{
  "source": "patent US20160066572A1",
  "about": "“METHOD OF SANITIZING EDIBLE SEEDS, PARTICULARLY MUCILAGE PRODUCING SEEDS” (AGRI-NEO INC., priority 2013, published 2016)",
  "key": {"chia and flax seeds": {"tested_on": "chia and flax seeds", "assay": "Mucilage release from mucilaginous seeds after treatment", "settings": "alcohol in the aqueous sanitizing composition", "method": "A minimum of 4 ml of the treatment solution was sprayed, using a handheld atomizing sprayer while mixing, on 100 gram samples of chia and flax seeds. The samples were allowed to air dry and checked for mucilage.\nA minimum of 4 ml of the treatment solution was sprayed, using a handheld atomizing sprayer while mixing, on 100-gram samples of chia and flax seeds. The samples were allowed to air dry and checked for mucilage."}, "[1]": {"tested_on": "Total count Aerobic bacteria", "assay": "Total aerobic count on seeds, grains and spices sprayed with sanitizing solutions (Example 1)", "type": "cell-based", "protocol": "(§1) Seeds were mechanically cleaned and spread in stainless steel containers. Each 100 grams seeds were sprayed with 4 ml total solutions descried above via conventional trigger vaporizer. This solution is equivalent to 40 L disinfecting solution total sprayed on 1-tonne seeds. Seeds, grains and spices were selected to represent all families and types of seeds, grains and spices. Another criterium was to select seeds and grains contaminated with a high count of total aerobic bacteria, yeast, mold, E. coli, Salmonella sp. and other pathogenic microorganisms.\n(§2) Seeds, grains and spices treated were: • Whole dried pea, • Split pea dried, • Pea fiber, • Vanilla, • Chia, • Sprouted flax and chia, • Flax, • Hemp, and • Black pepper seeds"}, "yeast and mold (Y&M)": {"tested_on": "yeast and mold (Y&M)", "assay": "Y&M count on seeds, grains and spices sprayed with sanitizing solutions (Example 1)", "type": "cell-based", "settings": "40 L/tonne; for Y&M, Av: average; for Y&M, n1: replicate n1; for Y&M, n2: replicate n2", "protocol": "as §1, §2"}, "[2]": {"settings": "whole dried pea, 40 L per 1 tonne"}},
  "data": [
    {"smiles": "CCO", "note": "[ethanol]", "values": [
      {"measurement": "effective amount (concentration) required to suppress mucilage release", "setting": "chia and flax seeds", "value": "about 15 % by volume"}
    ]},
    {"smiles": "CC(O)CO", "note": "(centres unmarked) [propylene glycol]", "values": [
      {"measurement": "effective amount (concentration) required to suppress mucilage release", "setting": "chia and flax seeds", "value": "about 13 % by volume"}
    ]},
    {"smiles": "CC(=O)OO", "note": "[Peracetic acid]", "values": [
      {"measurement": "bactericidal effect (conclusion)", "setting": "[1]; black pepper, 40 L per 1 tonne", "value": "strong bactericidal agent"},
      {"measurement": "bactericidal effect (conclusion)", "setting": "[1]; hemp, 40 L per 1 tonne", "value": "strong bactericidal agent"},
      {"measurement": "bactericidal effect (conclusion)", "setting": "[1]; pea fiber, 40 L per 1 tonne", "value": "strong bactericidal agent"},
      {"measurement": "bactericidal effect (conclusion)", "setting": "[1]; split pea, 40 L per 1 tonne", "value": "strong bactericidal agent"},
      {"measurement": "bactericidal effect (conclusion)", "setting": "[1]; vanilla, 40 L per 1 tonne", "value": "strong bactericidal agent"},
      {"measurement": "bactericidal effect (conclusion)", "setting": "[1]; [2]", "value": "strong bactericidal agent"}
    ]},
    {"smiles": "CCO", "note": "[2- Alcohol - ethanol, ethanol]", "values": [
      {"measurement": "bactericidal effect (conclusion)", "setting": "[1]; black pepper, 40 L per 1 tonne", "value": "not a strong bactericidal agent"},
      {"measurement": "Total count Aerobic CFU/g bacteria, Av", "setting": "[1]; black pepper, 40 L/tonne, average", "value": "Av = 1 million"},
      {"measurement": "Total count Aerobic CFU/g bacteria, Av", "setting": "[1]; chia seeds, 40 L/tonne, average", "value": "Av = 510,000 CFU/g"},
      {"measurement": "Total count Aerobic CFU/g bacteria, n1", "setting": "[1]; chia seeds, 40 L/tonne, replicate n1", "value": "n1 = 520,000 CFU/g"},
      {"measurement": "Total count Aerobic CFU/g bacteria, n2", "setting": "[1]; chia seeds, 40 L/tonne, replicate n2", "value": "n2 = 500,000 CFU/g"},
      {"measurement": "Total count Aerobic CFU/g bacteria, Av", "setting": "[1]; flax seeds, 40 L/tonne, average", "value": "Av = 2 millions"},
      {"measurement": "Total count Aerobic CFU/g bacteria, n1", "setting": "[1]; flax seeds, 40 L/tonne, replicate n1", "value": "n1 = 1.8 millions"},
      {"measurement": "Total count Aerobic CFU/g bacteria, n2", "setting": "[1]; flax seeds, 40 L/tonne, replicate n2", "value": "n2 = 2.2 millions"},
      {"measurement": "bactericidal effect (conclusion)", "setting": "[1]; hemp, 40 L per 1 tonne", "value": "not a strong bactericidal agent"},
      {"measurement": "Total count Aerobic CFU/g bacteria, Av", "setting": "[1]; hemp, 40 L/tonne, average", "value": "Av = 1 million"},
      {"measurement": "Total count Aerobic CFU/g bacteria, n1", "setting": "[1]; hemp, 40 L/tonne, replicate n1", "value": "n1 = 800,000 CFU/g"},
      {"measurement": "Total count Aerobic CFU/g bacteria, n2", "setting": "[1]; hemp, 40 L/tonne, replicate n2", "value": "n2 = 1.2 millions"},
      {"measurement": "bactericidal effect (conclusion)", "setting": "[1]; pea fiber, 40 L per 1 tonne", "value": "not a strong bactericidal agent"},
      {"measurement": "Total count Aerobic CFU/g bacteria, Av", "setting": "[1]; pea fiber, 40 L/tonne, average", "value": "Av = 700,000 CFU/g"},
      {"measurement": "Total count Aerobic CFU/g bacteria, n1", "setting": "[1]; pea fiber, 40 L/tonne, replicate n1", "value": "n1 = 500,000 CFU/g"},
      {"measurement": "Total count Aerobic CFU/g bacteria, n2", "setting": "[1]; pea fiber, 40 L/tonne, replicate n2", "value": "n2 = 900,000 CFU/g"},
      {"measurement": "bactericidal effect (conclusion)", "setting": "[1]; split pea, 40 L per 1 tonne", "value": "not a strong bactericidal agent"},
      {"measurement": "bactericidal effect (conclusion)", "setting": "[1]; sprouted flax and chia", "value": "bactericidal agent but not very strong"},
      {"measurement": "Total count Aerobic CFU/g bacteria, Av", "setting": "[1]; sprouted flax and chia, 40 L/tonne, average", "value": "Av = 600,000 CFU/g"},
      {"measurement": "Total count Aerobic CFU/g bacteria, n1", "setting": "[1]; sprouted flax and chia, 40 L/tonne, replicate n1", "value": "n1 = 550,000 CFU/g"},
      {"measurement": "Total count Aerobic CFU/g bacteria, n2", "setting": "[1]; sprouted flax and chia, 40 L/tonne, replicate n2", "value": "n2 = 650,000 CFU/g"},
      {"measurement": "bactericidal effect (conclusion)", "setting": "[1]; vanilla, 40 L per 1 tonne", "value": "not a strong bactericidal agent"},
      {"measurement": "Total count Aerobic CFU/g bacteria, Av", "setting": "[1]; vanilla, 40 L/tonne, average", "value": "Av = 1 million"},
      {"measurement": "Total count Aerobic CFU/g bacteria, n1", "setting": "[1]; vanilla, 40 L/tonne, replicate n1", "value": "n1 = 1 million"},
      {"measurement": "Total count Aerobic CFU/g bacteria, n2", "setting": "[1]; vanilla, 40 L/tonne, replicate n2", "value": "n2 = 1 million"},
      {"measurement": "bactericidal effect (conclusion)", "setting": "[1]; [2]", "value": "not a strong bactericidal agent"},
      {"measurement": "Total count Aerobic - CFU/g bacteria, Av", "setting": "[1]; whole dried pea, 40 L/tonne, average", "value": "Av = 900,000 CFU/g"},
      {"measurement": "Total count Aerobic - CFU/g bacteria, n1", "setting": "[1]; whole dried pea, 40 L/tonne, replicate n1", "value": "n1 = 800,000 CFU/g"},
      {"measurement": "Total count Aerobic - CFU/g bacteria, n2", "setting": "[1]; whole dried pea, 40 L/tonne, replicate n2", "value": "n2 = 1 million"},
      {"measurement": "Total count Aerobic CFU/g bacteria, Av", "setting": "[1]; whole split pea, 40 L/tonne, average", "value": "Av = 700,000 CFU/g"},
      {"measurement": "Total count Aerobic CFU/g bacteria, n1", "setting": "[1]; whole split pea, 40 L/tonne, replicate n1", "value": "n1 = 700,000 CFU/g"},
      {"measurement": "Total count Aerobic CFU/g bacteria, n2", "setting": "[1]; whole split pea, 40 L/tonne, replicate n2", "value": "n2 = 700,000 CFU/g"},
      {"measurement": "Y&M, Av", "setting": "yeast and mold (Y&M); black pepper", "value": "Av = 1,000 Y&M CFU/g"},
      {"measurement": "Y&M, Av", "setting": "yeast and mold (Y&M); chia seeds", "value": "Av = 10,000 Y&M CFU/g"},
      {"measurement": "Y&M, n1", "setting": "yeast and mold (Y&M); chia seeds", "value": "n1 = 10,000/n2 = 10,000 CFU/g"},
      {"measurement": "Y&M, n2", "setting": "yeast and mold (Y&M); chia seeds", "value": "n1 = 10,000/n2 = 10,000 CFU/g"},
      {"measurement": "Y&M, Av", "setting": "yeast and mold (Y&M); flax seeds", "value": "Av = 1,000 Y&M CFU/g"},
      {"measurement": "Y&M, n1", "setting": "yeast and mold (Y&M); flax seeds", "value": "n1 = 1,000/n2 = 1,000 CFU/g"},
      {"measurement": "Y&M, n2", "setting": "yeast and mold (Y&M); flax seeds", "value": "n1 = 1,000/n2 = 1,000 CFU/g"},
      {"measurement": "Y&M, Av", "setting": "yeast and mold (Y&M); hemp", "value": "Av = 1,000 Y&M CFU/g"},
      {"measurement": "Y&M, n1", "setting": "yeast and mold (Y&M); hemp", "value": "n1 = 1000/n2 = 1000 CFU/g"},
      {"measurement": "Y&M, n2", "setting": "yeast and mold (Y&M); hemp", "value": "n1 = 1000/n2 = 1000 CFU/g"},
      {"measurement": "Y&M, Av", "setting": "yeast and mold (Y&M); pea fiber", "value": "Y&M not detected"},
      {"measurement": "Y&M, n1", "setting": "yeast and mold (Y&M); pea fiber", "value": "n1, n2 not detected"},
      {"measurement": "Y&M, n2", "setting": "yeast and mold (Y&M); pea fiber", "value": "n1, n2 not detected"},
      {"measurement": "Y&M, Av", "setting": "yeast and mold (Y&M); sprouted flax and chia", "value": "Av = 1,000 Y&M CFU/g"},
      {"measurement": "Y&M, n1", "setting": "yeast and mold (Y&M); sprouted flax and chia", "value": "n1 = 1,000/n2 = 1,000 CFU/g"},
      {"measurement": "Y&M, n2", "setting": "yeast and mold (Y&M); sprouted flax and chia", "value": "n1 = 1,000/n2 = 1,000 CFU/g"},
      {"measurement": "Y&M, Av", "setting": "yeast and mold (Y&M); vanilla", "value": "Av = 1,000 Y&M CFU/g"},
      {"measurement": "Y&M, n1", "setting": "yeast and mold (Y&M); vanilla", "value": "n1 = 1000/n2 = 1000 CFU/g"},
      {"measurement": "Y&M, n2", "setting": "yeast and mold (Y&M); vanilla", "value": "n1 = 1000/n2 = 1000 CFU/g"},
      {"measurement": "Y&M, Av", "setting": "yeast and mold (Y&M); whole dried pea", "value": "Y&M not detected"},
      {"measurement": "Y&M, n1", "setting": "yeast and mold (Y&M); whole dried pea", "value": "n1, n2 not detected"},
      {"measurement": "Y&M, n2", "setting": "yeast and mold (Y&M); whole dried pea", "value": "n1, n2 not detected"},
      {"measurement": "Y&M, Av", "setting": "yeast and mold (Y&M); whole split pea", "value": "Y&M not detected"},
      {"measurement": "Y&M, n1", "setting": "yeast and mold (Y&M); whole split pea", "value": "n1, n2 not detected"},
      {"measurement": "Y&M, n2", "setting": "yeast and mold (Y&M); whole split pea", "value": "n1, n2 not detected"}
    ]}
  ]
}
